In patent publication US10265411B2, “N-optionally substituted aryl-2-oligomer-3-alkoxypropionamides” (Nektar Therapeutics, priority 2010, dated 2019):
Where two headings read alike, the source gives them in different places.

Legend:
[1] = molecular target: T1, cloned hNav1.8 channels expressed in CHO cells (Homo sapiens, UniProt Q9Y5Y9); experiment: Na+ channel blocking examination, automated whole-cell patch clamp (IonWorks Quattro); type: cell-based; conditions: for IC50: hNav1.8 in CHO cells; for block of hNav1.8 channels in the inactivated state, potency relative to control (lacosamide): in words
T1 construct: expressed in transfected cells
Protocol: Using an automated whole-cell patch-clamp approach, the in vitro effects of oligomer-containing compounds of the invention (synthesis described in Example 1) on cloned hNav1.8 channels expressed in CHO cells relative to control (lacosamide) were evaluated.
The procedures used in this experiment followed those set forth in Sheets et al. (2008) J Pharmacol Exp Ther 326(1):89-99. Briefly, automated patch clamp electrophysiological procedures were carried out in the IonWorks Quattro™ system (Molecular Devices Corporation, Union City Calif.). In preparation for a current recording session, intracellular solution (140 mM KCl, 5 mM MgCl2, 0.5 mM EGTA, 10 mM HEPES, 0.1 mg/mL amphotericin B) was loaded into the intracellular compartment of the Population Patch Clamp™ (PPC) planar electrode. CHO cells stably expressing the human Nav1.8 sodium channel subtype were suspended in HEPES-buffered physiological saline solution (137 mM NaCl, 4 mM KCl, 1.8 mM CaCl2, 1 mM MgCl2, 10 mM HEPES, 10 mM Glucose, pH adjusted to 7.4 with NaOH) and pipetted into the wells of the PPC planar electrode. After establishment of a whole-cell configuration (the perforated patch), membrane currents were recorded using patch clamp amplifier in the IonWorks Quattro™ system. Test article concentrations, loaded in a 384-well compound plate, were applied to naïve cells (one concentration per cell) via steel needles of a 48-channel pipettor. Each application consisted of addition of 6 μL of 2× concentrated test article solution to the total 12 μL final volume of the extracellular well of the PPC planar electrode. The PPC well contents were then mixed (three times) following addition of test article. All experiments were performed at ambient temperature.
Block of hNav1.8 sodium channel was measured using a stimulus voltage pattern shown in FIG. 1, and voltage potentials are indicated in Table 1. The pulse pattern was repeated twice (once before addition of test article and the other five minutes after test article addition). Peak current amplitudes were measured at three test pulses: TP1 (tonic block), TP11 (frequency-dependent block at 10 Hz), and TP12 (inactivated state block).
Data acquisition and analyses were performed using the IonWorks Quattro™ system operation software (version 2.0.2; Molecular Devices Corporation, Union City, Calif.). Inhibition potencies were estimated from concentration-response curves fitted using the Hill function: % Block=% VC+{(100−% VC)−(100−% VC)/[1+([Test]/IC50)^N]}, where [Test] is the concentration of test article, IC50 is the concentration of the test article producing half-maximal inhibition, N is the Hill coefficient, % VC is the percentage of the current run-down (the mean current inhibition at the vehicle control) and % Block is the percentage of ion channel current inhibited at each concentration of the test article.

[2] = Solubility of test articles in dosing vehicle 0.5% CMC; type: physicochemical; conditions: 0.5% CMC (carboxymethylcellulose)
[3] = tested on: formalin-induced paw licking in the mouse; experiment: Pain model: formalin-induced paw licking in the mouse; type: in vivo; conditions: for mice sedated / mice with splayed posture: 200 mg/kg orally; for formalin-induced paw licking compared to saline, Phase 2: dose 200, PO, Phase 2 (15-30 minutes)
Protocol: In the formalin-induced paw licking model, a test compound is administered via oral gavage (“PO”) followed in thirty minutes by the subcutaneous injection of formalin to a hind paw of a mouse. Subcutaneous injection of formalin first causes a pain-inducing mechanical injury (involving bradykinin and substance P) in the first five minutes (“Phase 1”) followed by a pain-inducing inflammatory response (involving bradykinin, histamine, serotonin and prostaglandins) occurring between 15-30 minutes (“Phase 2”) following the formalin injection. Both pain-inducing stimuli causes a characteristic “paw licking” response. The amount of time spent licking the formalin-injected paw is measured during Phase 1 and Phase 2. If the test article has relatively good pain reducing properties, a reduction in the time spent licking the formalin-injected paw is observed compared to the saline control group. […] By measuring a series of test articles, it is possible to understand each test article's pain reducing activity relative to each other.

[4] = test pulse TP1 (tonic block), 5 min after test article addition, read-out: IC50, type of block: Tonic
[5] = test pulse TP11 (frequency-dependent block at 10 Hz), read-out: IC50, type of block: 10 Hz
[6] = test pulse TP12 (inactivated state block), read-out: IC50, type of block: Inactivated state
[7] = 30 min before formalin, in words

T1 sequence (Q9Y5Y9 whole entry): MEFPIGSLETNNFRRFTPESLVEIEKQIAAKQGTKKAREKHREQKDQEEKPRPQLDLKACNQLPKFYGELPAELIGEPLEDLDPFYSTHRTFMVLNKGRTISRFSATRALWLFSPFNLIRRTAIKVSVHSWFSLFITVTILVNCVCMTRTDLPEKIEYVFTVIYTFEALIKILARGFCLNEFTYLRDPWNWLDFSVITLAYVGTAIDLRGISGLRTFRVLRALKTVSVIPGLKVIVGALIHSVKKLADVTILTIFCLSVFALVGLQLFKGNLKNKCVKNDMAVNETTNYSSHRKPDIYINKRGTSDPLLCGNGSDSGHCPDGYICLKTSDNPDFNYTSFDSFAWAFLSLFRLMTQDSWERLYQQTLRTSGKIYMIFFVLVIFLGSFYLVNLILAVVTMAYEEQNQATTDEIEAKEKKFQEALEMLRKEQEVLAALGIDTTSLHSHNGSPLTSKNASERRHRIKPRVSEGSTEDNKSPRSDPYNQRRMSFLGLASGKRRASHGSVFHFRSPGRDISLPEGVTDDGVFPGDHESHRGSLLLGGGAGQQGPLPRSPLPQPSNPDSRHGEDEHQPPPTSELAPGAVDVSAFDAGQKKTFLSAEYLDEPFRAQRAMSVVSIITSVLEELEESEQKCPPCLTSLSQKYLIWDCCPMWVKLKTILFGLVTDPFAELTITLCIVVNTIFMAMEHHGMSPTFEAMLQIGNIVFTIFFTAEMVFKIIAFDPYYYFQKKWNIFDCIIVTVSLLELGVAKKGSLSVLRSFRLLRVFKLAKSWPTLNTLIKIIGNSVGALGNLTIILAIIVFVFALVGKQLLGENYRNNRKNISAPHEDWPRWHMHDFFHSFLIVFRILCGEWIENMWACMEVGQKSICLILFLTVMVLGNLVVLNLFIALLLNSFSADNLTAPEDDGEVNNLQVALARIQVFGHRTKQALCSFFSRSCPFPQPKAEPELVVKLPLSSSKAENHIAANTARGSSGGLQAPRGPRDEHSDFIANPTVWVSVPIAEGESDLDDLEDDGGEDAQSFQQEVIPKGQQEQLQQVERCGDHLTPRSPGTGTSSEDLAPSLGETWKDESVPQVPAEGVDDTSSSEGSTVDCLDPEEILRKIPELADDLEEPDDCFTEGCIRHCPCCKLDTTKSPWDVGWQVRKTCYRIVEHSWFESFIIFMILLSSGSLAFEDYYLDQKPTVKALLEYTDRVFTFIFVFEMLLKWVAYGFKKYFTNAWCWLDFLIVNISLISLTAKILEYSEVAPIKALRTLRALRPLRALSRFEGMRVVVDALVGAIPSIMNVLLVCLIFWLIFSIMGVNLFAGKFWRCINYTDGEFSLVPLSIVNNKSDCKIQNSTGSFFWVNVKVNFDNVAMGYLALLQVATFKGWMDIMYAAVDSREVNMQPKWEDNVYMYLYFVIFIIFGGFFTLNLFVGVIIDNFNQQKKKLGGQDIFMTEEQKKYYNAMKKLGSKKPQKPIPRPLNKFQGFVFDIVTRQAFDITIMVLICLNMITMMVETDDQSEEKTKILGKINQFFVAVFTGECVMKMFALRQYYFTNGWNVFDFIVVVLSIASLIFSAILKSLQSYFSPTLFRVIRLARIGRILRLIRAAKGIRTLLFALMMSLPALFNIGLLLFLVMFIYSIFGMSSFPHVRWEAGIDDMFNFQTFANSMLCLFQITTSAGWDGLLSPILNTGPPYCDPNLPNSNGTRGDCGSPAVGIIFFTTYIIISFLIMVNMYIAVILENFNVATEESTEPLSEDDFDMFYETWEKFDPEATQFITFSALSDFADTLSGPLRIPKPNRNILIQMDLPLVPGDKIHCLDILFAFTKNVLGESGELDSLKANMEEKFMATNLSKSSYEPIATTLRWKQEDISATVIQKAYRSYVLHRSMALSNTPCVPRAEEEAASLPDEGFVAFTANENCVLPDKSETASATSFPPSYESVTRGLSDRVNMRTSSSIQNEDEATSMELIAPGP

Row | SMILES | IC50 [1, 4] | IC50 [1, 5] | IC50 [1, 6] | formalin-induced paw licking compared to saline, Phase 2 [3, 7] | block of hNav1.8 channels in the inactivated state, potency relative to control (lacosamide) [1] | also measured
1 | COCCOCCOCCOCCOCCOCCOCCOC(=O)N[C@H](COC)C(=O)NCc1ccccc1 [(2R) N-benzyl-2-carboxy mPEG7 amino-3-methoxy propionamide] | > 300 µM | > 300 µM | > 300 µM |  |  | 
2 | COCCOCCOCCOCCOCCOCCOC(=O)N[C@H](COC)C(=O)NCc1ccccc1 [(2R) N-benzyl-2-carboxy mPEG6 amino-3-methoxy propionamide] | > 300 µM | > 300 µM | > 300 µM |  |  | 
3 | COC[C@@H](NC(C)=O)C(=O)NCc1ccccc1 [(R)—N-benzyl-2-acetamido-3-methoxy propionamide] |  |  |  | greatest reduction |  | solubility in vehicle [2]: not readily soluble; formalin-induced paw licking time, Phase 1 ([3]; 200 mg/kg PO, 30 min before formalin, Phase 1 (first five minutes), in words): greatest reduction; mice sedated ([3]; Phase 1): 5/7; mice with splayed posture ([3]; Phase 1): 5/7; mice sedated ([3]; Phase 2): 6/7; mice with splayed posture ([3]; Phase 2): 7/7; IC50 ([1]; IC50, type of block: 10 Hz, test pulse TP11 (frequency-dependent block at 10 Hz)): > 300 µM; IC50 ([1]; IC50, type of block: Inactivated state, test pulse TP12 (inactivated state block)): 278 µM; IC50 ([1]; IC50, type of block: Tonic, test pulse TP1 (tonic block), 5 min after test article addition): > 300 µM
4 | COCCOCCOCCOCCOCCOCCOCCOCCOC(=O)N[C@H](COC)C(=O)NCc1ccccc1 [(2R) N-benzyl-2-carboxy mPEG8 amino-3-methoxy propionamide] | > 300 µM | > 300 µM | > 300 µM |  |  | 
5 | COCCOC(=O)N[C@H](COC)C(=O)NCc1ccccc1 [(2R) N-benzyl-2-carboxy mPEG1 amino-3-methoxy propionamide] | > 300 µM | > 300 µM | 267 µM |  | potency comparable to control | solubility in vehicle [2]: not readily soluble
6 | COCCOCCOCCOCCOCCOC(=O)N[C@H](COC)C(=O)NCc1ccccc1 [(2R) N-benzyl-2-carboxy mPEG5 amino-3-methoxy propionamide] | > 300 µM | > 300 µM | > 300 µM | showed a reduction |  | 
7 | COCCOCCOCCOCCOC(=O)N[C@H](COC)C(=O)NCc1ccccc1 [(2R) N-benzyl-2-carboxy mPEG4 amino-3-methoxy propionamide] | > 300 µM | > 300 µM | > 300 µM | showed a reduction |  | 
8 | COCCOCCOCCOCCOCCOCCOCCOCCOCCOC(=O)N[C@H](COC)C(=O)NCc1ccccc1 [(2R) N-benzyl-2-carboxy mPEG9 amino-3-methoxy propionamide] | > 300 µM | > 300 µM | > 300 µM |  |  | 
9 | COCCOCCOC(=O)N[C@H](COC)C(=O)NCc1ccccc1 [(2R) N-benzyl-2-carboxy mPEG2 amino-3-methoxy propionamide] | > 300 µM | > 300 µM | 166 µM | showed a reduction | potency comparable to control | 
10 | COCCOCCOCCOC(=O)N[C@H](COC)C(=O)NCc1ccccc1 [(2R) N-benzyl-2-carboxy mPEG3 amino-3-methoxy propionamide] | > 300 µM | > 300 µM | 239 µM | showed a reduction | potency comparable to control | 
